Calls of active or inactive are those of the source. No cut-off for these calls is given here.
How the values were obtained:
BV-2 [1] = test: Anti-neuroinflammatory activity in mouse BV-2 cells assessed as inhibition of LPS-induced IL-1 beta mRNA expression at 10 uM by qRT-PCR analysis; format: functional, cell-based
BV-2 [2] = test: Inhibition of LPS-inuced nuclear translocation of PKM2 in mouse BV-2 cells assessed as decrease in PKM2 content in nucleus at 5 uM incubated for 6 hrs in presence of LPS by western blot analysis; format: subcellular; details: filed as modulator
BV-2 [3] = test: Anti-neuroinflammatory activity in mouse BV-2 cells assessed as inhibition of LPS-induced microglial activation by measuring inhibition of morphological changes at 5 uM incubated for 24 hrs in presence of LPS by inverted microscopic analysis; format: functional, cell-based
Mus musculus [4] = test: Anti-neuroinflammatory activity in BALB/c mouse assessed as decrease in morphine-induced IL-1 beta mRNA expression in medial prefrontal cortex at 0.2 mg/kg administration started on day 3 after 2 days of chamber habituation followed by treatment with morphine on days 4,6 and 8 and with vehicle on days 5,7 and 9 and measured on day 10 by qRT-PCR analysis; format: functional, organism-based; details: time 8.0 day
Mus musculus [5] = test: Anti-morphine addiction activity against BALB/c mouse assessed as decrease in preference for morphine-paired chamber at 0.2 mg/kg administration started on day 3 after 2 days of chamber habituation followed by treatment with morphine on days 4,6 and 8 and with vehicle on days 5,7 and 9 and measured on day 10 by conditional place preference test; format: functional, organism-based; details: time 8.0 day
BV-2 [6] = test: Anti-neuroinflammatory activity in mouse BV-2 cells assessed as inhibition of LPS-induced NO production incubated for 24 hrs in presence of LPS by fluorescence-based analysis; format: functional, cell-based; details: for IC50: BV-2, 24 h
Pyruvate kinase PKM [7] = molecular target: T1, Pyruvate kinase PKM (Homo sapiens, UniProt P14618); test: Binding affinity to PKM2 (unknown origin) assessed as decrease in thermal stabilization of protein by measuring change in melting temperature at 100 uM incubated for 2 hrs at room temperature followed by heating at varying temperatures for 5 mins and later cooled at 25 degC for 3 mins by CETSA analysis; details: filed as modulator, time 128.0 min
Target sequence in this assay (P14618 2-531 limits assumed): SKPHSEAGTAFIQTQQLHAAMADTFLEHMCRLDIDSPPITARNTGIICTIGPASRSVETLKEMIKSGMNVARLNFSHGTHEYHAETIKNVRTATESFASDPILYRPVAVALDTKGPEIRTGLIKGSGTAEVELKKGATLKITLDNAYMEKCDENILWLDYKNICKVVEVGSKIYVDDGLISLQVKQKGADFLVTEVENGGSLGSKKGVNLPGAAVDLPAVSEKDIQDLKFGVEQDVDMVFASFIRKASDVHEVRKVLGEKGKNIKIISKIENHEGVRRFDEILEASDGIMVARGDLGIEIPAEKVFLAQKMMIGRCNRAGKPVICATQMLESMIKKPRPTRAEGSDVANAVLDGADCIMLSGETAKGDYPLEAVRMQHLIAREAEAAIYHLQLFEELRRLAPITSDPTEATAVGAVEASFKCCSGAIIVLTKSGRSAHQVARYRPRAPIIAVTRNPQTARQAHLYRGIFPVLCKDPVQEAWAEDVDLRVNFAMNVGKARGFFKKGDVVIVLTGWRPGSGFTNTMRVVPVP

[8] = Cmax in BALB/c mouse brain at 10 mg/kg, po measured for 4 hrs by MS-HPLC analysis; format: ADME, organism-based; details: in vivo
[9] = Ratio of AUC in brain to plasma in BALB/c mouse at 10 mg/kg, po measured for 4 hrs by MS-HPLC analysis; format: ADME, organism-based; details: brain and plasma
[10] = Half life in BALB/c mouse brain at 10 mg/kg, po measured for 4 hrs by MS-HPLC analysis; format: ADME, organism-based
[11] = Half life in BALB/c mouse plasma at 10 mg/kg, po measured for 4 hrs by MS-HPLC analysis; format: ADME, organism-based
[12] = Cmax in BALB/c mouse plasma at 10 mg/kg, po measured for 4 hrs by MS-HPLC analysis; format: ADME, organism-based; details: in vivo
[13] = Tmax in BALB/c mouse brain at 10 mg/kg, po measured for 4 hrs by MS-HPLC analysis; format: ADME, organism-based
[14] = AUC in BALB/c mouse brain at 10 mg/kg, po measured for 4 hrs by MS-HPLC analysis; format: ADME, organism-based; details: in vivo
Pyruvate kinase PKM [15] = molecular target: T1, Pyruvate kinase PKM; test: Binding affinity to PKM2 (unknown origin) assessed as dissociation constant by fluorescence titration based spectrophotometric analysis
Target sequence in this assay (P14618 whole entry): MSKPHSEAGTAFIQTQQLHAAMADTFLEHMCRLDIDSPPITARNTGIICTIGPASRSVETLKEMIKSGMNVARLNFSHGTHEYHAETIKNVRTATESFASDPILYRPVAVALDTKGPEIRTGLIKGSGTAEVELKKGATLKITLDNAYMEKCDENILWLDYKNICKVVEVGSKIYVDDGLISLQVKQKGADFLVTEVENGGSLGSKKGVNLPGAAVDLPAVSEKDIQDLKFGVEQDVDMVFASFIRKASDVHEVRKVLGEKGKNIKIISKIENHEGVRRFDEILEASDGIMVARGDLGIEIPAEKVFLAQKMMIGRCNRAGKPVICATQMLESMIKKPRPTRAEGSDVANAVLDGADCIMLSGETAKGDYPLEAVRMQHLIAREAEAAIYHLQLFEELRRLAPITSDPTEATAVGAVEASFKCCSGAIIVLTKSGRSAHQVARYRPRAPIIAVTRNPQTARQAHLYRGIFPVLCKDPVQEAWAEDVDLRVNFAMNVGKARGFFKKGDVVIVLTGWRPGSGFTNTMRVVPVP

BV-2 [16] = test: Anti-neuroinflammatory activity in mouse BV-2 cells assessed as inhibition of LPS-induced IL-1 beta mRNA expression at 1 uM by qRT-PCR analysis; format: functional, cell-based
[17] = Ratio of Cmax in brain to plasma in BALB/c mouse at 10 mg/kg, po measured for 4 hrs by MS-HPLC analysis; format: ADME, organism-based; details: brain and plasma
[18] = Mean residence time in BALB/c mouse plasma at 10 mg/kg, po measured for 4 hrs by MS-HPLC analysis; format: ADME, organism-based
[19] = Acute toxicity against BALB/c mouse assessed as changes in body weight at 20 mg/kg, ip measured for 14 days; format: organism-based; details: in vivo, 336 h, time 14 day
[20] = Acute toxicity against BALB/c mouse assessed as mortality at 20 mg/kg, ip measured after 2 hrs; format: organism-based; details: in vivo
Homo sapiens = species on record: Homo sapiens; test: Binding affinity to PKM2 F26A mutant (unknown origin) at 10 to 50 uM by fluorescence titration based spectrophotometric analysis; details: dose 10-50 µM
[21] = Mean residence time in BALB/c mouse brain at 10 mg/kg, po measured for 4 hrs by MS-HPLC analysis; format: ADME, organism-based
[22] = AUC in BALB/c mouse plasma at 10 mg/kg, po measured for 4 hrs by MS-HPLC analysis; format: ADME, organism-based; details: in vivo
[23] = Tmax in BALB/c mouse plasma at 10 mg/kg, po measured for 4 hrs by MS-HPLC analysis; format: ADME, organism-based
Cannabinoid receptor 2 = Cannabinoid receptor 2 (Homo sapiens, UniProt P34972); test: Binding affinity to CB2 receptor (unknown origin)
Cannabinoid receptor 1 = Cannabinoid receptor 1 (Homo sapiens, UniProt P21554); test: Binding affinity to CB1 receptor (unknown origin)
Cannabinoid receptor 1, sequence (P21554 whole entry): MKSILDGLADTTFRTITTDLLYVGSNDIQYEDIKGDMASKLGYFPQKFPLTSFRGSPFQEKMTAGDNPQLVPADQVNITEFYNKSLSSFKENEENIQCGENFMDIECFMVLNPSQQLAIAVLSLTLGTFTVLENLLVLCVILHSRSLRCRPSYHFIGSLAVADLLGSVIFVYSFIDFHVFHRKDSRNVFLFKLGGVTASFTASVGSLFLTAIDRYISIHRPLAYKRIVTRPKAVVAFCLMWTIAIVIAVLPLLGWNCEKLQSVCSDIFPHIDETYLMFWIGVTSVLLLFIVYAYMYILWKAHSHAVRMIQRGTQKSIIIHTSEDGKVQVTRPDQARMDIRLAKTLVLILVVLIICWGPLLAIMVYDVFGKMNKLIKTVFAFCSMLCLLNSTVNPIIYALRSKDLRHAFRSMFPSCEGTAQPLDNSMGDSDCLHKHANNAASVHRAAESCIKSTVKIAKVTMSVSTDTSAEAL

Cannabinoid receptor 2, sequence (P34972 whole entry): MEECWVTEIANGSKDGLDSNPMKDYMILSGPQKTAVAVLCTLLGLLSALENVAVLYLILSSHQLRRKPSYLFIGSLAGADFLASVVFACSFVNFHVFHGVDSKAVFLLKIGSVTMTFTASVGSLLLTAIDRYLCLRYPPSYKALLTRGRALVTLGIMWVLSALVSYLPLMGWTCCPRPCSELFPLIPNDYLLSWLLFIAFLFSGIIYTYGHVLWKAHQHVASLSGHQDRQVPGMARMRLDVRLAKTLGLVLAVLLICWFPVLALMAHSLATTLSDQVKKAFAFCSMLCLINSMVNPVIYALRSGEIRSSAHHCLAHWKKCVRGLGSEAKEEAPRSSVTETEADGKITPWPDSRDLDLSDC

For `C=C(C)[C@@H]1CCC(C)=C[C@H]1c1c(O)cc([C@@H](C)n2nccn2)cc1O`, the Activity (BV-2 [1]) was “Active”, the inhibition (BV-2 [2]) was “Active; Weak Inhibitory Effect Observed” and the Activity (BV-2 [3]) was “Active; Lessened Effect Observed”. For the same compound, the Activity (Mus musculus [4]) was “Active; Minimal Effect Observed”, the Activity (Mus musculus [5]) was “inactive” and the IC50 (BV-2 [6]) was 13.2 µM. For the same compound, the ΔTm (Pyruvate kinase PKM [7]) was 1.6 °C.
With `C=C(C)[C@H]1CCC(C)=C[C@@H]1c1c(O)cc([C@@H](C)n2nccn2)cc1O` the IC50 (BV-2 [6]) was > 30 µM.
With `C=C(C)[C@@H]1CCC(C)=C[C@H]1c1c(O)cc([C@H](C)n2nccn2)cc1O` the Cmax [8] was 130 ng/mg, the Kp at 4 h [9] was > 2 and the half-life [10] was 48 min. The Activity (BV-2 [1]) was “Active”, the half-life [11] was 42 min and the Cmax [12] was 46.6 ng/mg. The Tmax [13] was 18 min, the AUC [14] was 137.7 ng·h/g and the inhibition (BV-2 [2]) was “Active”. For the same compound, the Kd (Pyruvate kinase PKM [15]) was 2.2 µM, the Activity (BV-2 [16]) was “Active” and the Kp at 4 h [17] was 3. The Activity (BV-2 [3]) was “Active”, the MRT [18] was 72 min and the Activity [19] was “Non-toxic”. The Activity (Mus musculus [4]) was “Active”, the Activity (Mus musculus [5]) was “Active” and the Activity [20] was “Non-toxic”. The Activity (Homo sapiens) was “inactive”, the Activity (BV-2 [6]) was “Dose-dependent-effect” and the IC50 (BV-2 [6]) was 3.3 µM. For the same compound, the MRT [21] was 102 min, the ΔTm (Pyruvate kinase PKM [7]) was 4.1 °C and the AUC [22] was 75.5 ng·h/g. For the same compound, the Tmax [23] was 30 min.
Work on `CCCCCCC(C)(C)c1cc(O)c2c(c1)OC(C)(C)c1ccc(C)c(CO)c1-2` yielded a Ki (Cannabinoid receptor 2) of 0.096 µM and a Ki (Cannabinoid receptor 1) of 66 pM.
In the case of `C=C(C)[C@H]1CCC(C)=C[C@@H]1c1c(O)cc([C@H](C)n2nccn2)cc1O`, the IC50 (BV-2 [6]) is reported as > 30 µM.
